{"source": "patent US8937183B2", "about": "“Detection of hydrogen peroxide” (Promega Corporation, priority 2011, dated 2015)", "assay": "Detection of hydrogen peroxide using coelenterazine borate with NanoLuc luciferase", "format": "biochemical", "details": "12.5 uM compound, 40 ng/ml NanoLuc luciferase, 200 mM Tris-Cl pH 8.5 or pH 9.0, FIG. 3", "description": "PBI 4759 (10 mM; final concentration 12.5 uM), various concentrations of hydrogen peroxide and 40 ng/ml NanoLuc™ luciferase enzyme (Promega Corporation) were added to wells of a 96-well assay plate containing 200 mM Tris-Cl either at pH 8.5 or pH 9.0. Luminescence was detected on a GloMax® luminometer.", "data": [{"smiles": "CC1(C)OB(c2ccc(COc3c(Cc4ccco4)nc4c(Cc5ccccc5)nc(-c5ccccc5)cn34)cc2)OC1(C)C", "note": "[PBI 4759, 8-benzyl-2-(furan-2-ylmethyl)-6-phenyl-3-((4-(4,4,5,5-tetramethyl-1,3,2-dioxaborolan-2-yl)benzyl)oxy)imidazo[1,2-a]pyrazine]", "values": [{"measurement": "detection of hydrogen peroxide by luminescence (in words)", "value": "allows sensitive detection of hydrogen peroxide"}]}]}
